Reference: PubChem BioAssay AID686920 (Broad Institute, 2013)

Tested on: A673 NR0B1-luciferase reporter, viability-normalised luminescence
Assay: NR0B1 reporter signal reduction in A673 cells – cell-based, luciferase luminescence, cherry-pick, EWS/Fli inhibitor project, dose response (AID 686920)

Row | Structure (SMILES) | AC35 [µM]
1 | CCc1ccc(/C=C2\SC(=S)N(CCC(=O)Nc3cc(C)on3)C2=O)cc1 | 6.38
2 | C[C@@H]1CCCCO[C@H](CN(C)Cc2ccc(C(=O)Nc3ccccc3N)cc2)[C@@H](C)CN([C@@H](C)CO)C(=O)c2cc(NS(=O)(=O)c3ccc(Cl)cc3)ccc2O1 | 6.13
3 | CC12CCC(O)CC1CCC1C2CCC2(C)C(C3=CC(=O)OC3)CCC12O (stereo unspecified) | 0.391
4 | COc1ccc(-c2sc3ccccc3c2-c2ccc(OCCN3CCCCC3)cc2)cc1 | 7.87
5 | Cc1ccsc1C(=O)OCC(=O)c1cc(C)n(C)c1C | 6.2
6 | Cc1cccc(/C=C(\c2nc3ccccc3[nH]2)S(=O)(=O)c2ccccc2)c1 | 5.46
7 | CC(=NNc1ccc2ccccc2n1)c1ccccn1 | 0.597
8 | CN(C)c1ccc(N=Nc2nc3ccccc3n2C)cc1 | 12.5
9 | O=C(O)c1ccccc1C(=O)Nc1ccc(Oc2ccc3ccccc3c2)cc1 | 5.69
10 | CC(C)CC(NC(=O)c1cccs1)c1nnc(SCc2ccc(Cl)c(Cl)c2)n1C (stereo unspecified) | 39.5
11 | NC1=CC(=O)C(=O)c2cccnc21 | 14
12 | C[C@@H]1CN([C@H](C)CO)C(=O)c2cc(NC(=O)c3ccccc3)ccc2O[C@@H](C)CCCCO[C@H]1CN(C)C(=O)Nc1cccc2ccccc12 | 2.07
13 | CCCCc1c(Cc2ccccc2)ncn1CCc1ccccc1OC | 20.8
14 | C[C@@H]1CN([C@@H](C)CO)C(=O)c2cccc(NS(=O)(=O)c3ccccc3)c2O[C@@H]1CN(C)Cc1ccc(C(=O)Nc2ccccc2N)cc1 | 5.67
15 | CC(C)(C)c1ccc(Cn2c(=O)cnc3ccccc32)cc1 | 13.2
16 | C[C@@H]1CN([C@@H](C)CO)C(=O)Cc2cc(N(C)C)ccc2O[C@@H]1CN(C)Cc1ccccc1 | 7.99
17 | CC(C)=CCC/C(C)=C/CN1C(=O)N(c2ccc(F)cc2)[C@H]2C[C@@H](c3ccccc3)[C@@H](C)[C@@H](C(=O)N3CCOCC3)C[C@H]21 | 7.8
18 | CN(C)c1ccc(/C=N/Nc2nc3ccccc3o2)cc1 | 5.35
19 | Cc1ccc(C)c(S(=O)(=O)N2CCN(c3ncnc4sccc34)CC2)c1 | 3.63
20 | CC(C)(C)c1ccc(Oc2ccc(NC(=O)C3CC=CCC3C(=O)O)cc2)cc1 (stereo unspecified) | 40.5
21 | N#C[C@@H]1[C@H](c2ccc(C#Cc3cccc(F)c3)cc2)[C@@H](CO)N1C(=O)C1CCCC1 | 4.38
22 | COc1cc2c(cc1OC)C(C)N(C(=O)c1cc(Cl)nc(Cl)c1)CC2 (stereo unspecified) | 6.06
23 | Cc1csc(NC(=O)CCc2c(C)nc3cc(-c4ccc(Cl)cc4)nn3c2C)n1 | 0.284
24 | O=C(O)c1cccc(N/N=C/c2ccc(OC(F)(F)F)cc2)c1 | 2.26

Row | Structure (SMILES) | AC35 [µM]
25 | CO[C@H]1CN(C)C(=O)c2ccc(NC(=O)c3ccc(-c4ccccc4)cc3)cc2OC[C@H](C)NC[C@H]1C | 15
26 | N/C(=C\C(=O)c1cc(Cl)ccc1O)C(Cl)(Cl)Cl | 4.64
27 | CN1c2ccc(-c3ccc(C#N)cc3)cc2[C@H]2[C@H](CCN2S(=O)(=O)c2cccc(F)c2)[C@H]1CO | 1.74
28 | OC[C@H]1O[C@@H](n2cnc3c(NCc4ccco4)ncnc32)[C@H](O)[C@@H]1O | 4.99
29 | O=C(C[C@H]1C[C@H]2c3cc(NS(=O)(=O)c4ccc(F)cc4)ccc3O[C@H]2[C@H](CO)O1)NCc1ccc(Oc2ccccc2)cc1 | 6.22
30 | O=C(O)c1ccc(N/N=C/c2c[nH]c3ccccc23)cc1 | 8.82
31 | COC(=O)C[C@H]1CC[C@H]2[C@H](COc3ccc(NC(=O)Nc4cccc(Cl)c4)cc3C(=O)N2C)O1 | 44.1
32 | O=C1NC(=O)N(Cc2ccco2)C(=O)/C1=C/C=C/c1ccco1 | 6.32
33 | CNC[C@H](CC1CCCCC1)NC[C@H](CO)NCCc1cccc(C(F)(F)F)c1 | 13.7
34 | C[C@]12CC[C@H]3[C@@H](CC[C@]4(O)C[C@@H](O)CC[C@]34C=O)[C@@]1(O)CC[C@@H]2C1=CC(=O)OC1 | 0.626
35 | CCN(Cc1ccccc1)c1ccc(/C=N/N=C(N)N)cc1 | 10.6
36 | CCCc1cc(=O)oc2c3c(c4c(c12)OC(C)(C)C=C4)OC(C)C(C)C3O (stereo unspecified) | 33.3
37 | Nc1ccc(-c2cc3ccccc3c(=O)o2)cc1 | 0.485
38 | CC(=O)OC1CC2(O)C3CCC4CC(O)CCC4(C)C3CCC2(C)C1C1=CC(=O)OC1 (stereo unspecified) | 0.231
39 | CC(C)(C)[S@](=O)N1Cc2cc(C(=O)NCC(F)(F)F)nc(-c3cccc(-c4cccc(F)c4)c3)c2[C@@H]1CCO | 18.9
40 | CCCCCCCCn1c2c(c(=N)c3c1CCC3)CCCC2 | 5.73
41 | O=C(CCc1ccccc1)NC(c1cccs1)c1cc(Cl)c2cccnc2c1O (stereo unspecified) | 5.42
42 | CCc1ccc(/C=C2\SC(=S)N(CCCC(=O)Nc3cc(C)on3)C2=O)cc1 | 0.947
43 | CC1=NN(c2ccc(C)cc2)C(=O)/C1=C\C=C\c1ccccc1 | 10.2
44 | CC(C)(C)C(=O)Cn1ncc(Cl)c(Cl)c1=O | 12.9
45 | CC(C)N1C/C(=C/c2ccsc2)C(=O)/C(=C/c2ccsc2)C1 | 5.52
46 | C(=NNc1ccc2ccccc2n1)c1ccccn1 | 1.55
47 | Cc1ccsc1/C=N/Nc1cccc(C(=O)O)c1 | 0.832
48 | O=C(Nc1ccc(NC(=O)c2cc3ccccc3o2)cc1)c1ccc2c(c1)OCCO2 | 13.2

Row | Structure (SMILES) | AC35 [µM]
49 | N#C[C@H]1N[C@H](CO)[C@H]1c1ccc(C#Cc2ccccc2F)cc1 | 0.137
50 | NC(Cc1ccc(C(F)(F)F)cc1)c1csc(NC(=O)Nc2ccccc2Cc2ccccc2)n1 (stereo unspecified) | 17.6
51 | O=C(c1cccc(S(=O)(=O)NCc2ccccc2)c1)N1CCN(c2ccccc2)CC1 | 11.6
52 | COC(=O)CC1(C(=O)OC)Oc2ccc(Br)cc2C(=O)N1c1cccc(Cl)c1Cl (stereo unspecified) | 15
53 | CCc1nc(N)nc(N)c1-c1ccc(Cl)c(N=[N+]=[N-])c1 | 6.23
54 | CCCN1C(=O)/C(=C/c2nc3ccccc3c(=O)[nH]2)c2ccccc21 | 32.5
55 | COc1ccc(CC(N)c2csc(NC(=O)Nc3cccc(C(F)(F)F)c3)n2)cc1 (stereo unspecified) | 9.72
56 | CC(=NNc1cc(C)c2ccccc2n1)c1ccccn1 | 8.23
57 | CC(=O)c1ccc(N=Nc2ccc(C)cc2)cc1 | 8.92
58 | Cc1cc(C(=O)CN2C(=O)c3ccccc3S2(=O)=O)c(C)n1C(C)C | 3.04
59 | C[C@@H]1CCCCO[C@@H](CN(C)C(=O)Cc2ccccc2)[C@@H](C)CN([C@@H](C)CO)C(=O)c2cc(NS(=O)(=O)c3ccc(F)cc3)ccc2O1 | 43.9
60 | O=C1Nc2ccccc2C1=Nc1ccc(Br)cc1 | 15.6
61 | Cc1cc(Br)ccc1N=C1C(=O)Nc2ccccc21 | 5.12
62 | COc1ccc(N=C(NN)c2ccc3ccccc3n2)cc1 | 21.8
63 | Nc1nc(=S)c2[nH]cnc2[nH]1 | 2.5
64 | CCCCCCCCCCCCCCCCCCNc1ccn(C2OC(COP(=O)(O)OCC3OC(n4cc(F)c(=O)[nH]c4=O)CC3O)C(O)C2O)c(=O)n1 (stereo unspecified) | 18.8
65 | CC(=O)OC1CC(OC2C(O)CC(OC3C(O)CC(OC4CCC5(C)C(CCC6C5CC(O)C5(C)C(C7=CC(=O)OC7)CCC65O)C4)OC3C)OC2C)OC(C)C1OC1OC(CO)C(O)C(O)C1O (stereo unspecified) | 0.225
66 | COc1ccc(OC)c(Cc2cnc3nc(N)nc(N)c3c2C)c1 | 0.0922
67 | CCOc1ccc(-c2noc(CCC(=O)O)n2)cc1 | 1.17
68 | C[C@H]1CN([C@@H](C)CO)C(=O)c2cccc(NC(=O)c3ccc(-c4nccs4)cc3)c2O[C@@H]1CN(C)Cc1ccc(C(=O)Nc2ccccc2N)cc1 | 14.1
69 | O=C1C(=O)N(CCS(=O)(=O)c2ccccc2)c2ccccc21 | 20.7
70 | C[C@@H]1CN([C@@H](C)CO)S(=O)(=O)c2ccc(C#CCN(C)C)cc2O[C@@H]1CN(C)Cc1ccncc1 | 60.2
71 | Cc1ccc(C(=O)CN2C(=O)c3ccccc3S2(=O)=O)cc1 | 1.97
